Test results from US4652548A (Eli Lilly and Company, priority 1984, dated 1987).

Columns and labels:
[1] = Euglycemic glucose-clamp: steady state serum hormone levels; type: in vivo, human
Description: (§1) J. Physiol. 237:E214-E223 (1979). With this technique, an antecuubital vein is cannulated in an antegrade manner to administer the infusates. A dorsal hand vein is cannulated in a retrograde fashion and kept in a warming device (70° C.) to facilitate venous sampling and provide arterialized venous blood After insertion of the catheters, [3-3H]-glucose is infused for at least 30 minutes before initiating the hormone infusion. At the onset of hormone infusion, a priming dose of either insulin or proinsulin is administered during the initial 10 minutes in a logarithmically decreasing manner to acutely raise the serum hormone level. The amount of insulin or proinsulin given during this initial 10 minute period is roughly twice that given during each subsequent 10 minute interval by a continuous hormone infusion The serum glucose is maintained between 80 and 90 mg/dl throughout the study period with a coefficient of variation of less than 5% by means of a variable rate of infusion of 20% dextrose. The overall glucose disposal rate is assessed isotopically for each 20 minute interval of the study.
Each subject underwent a total of 8 euglycemic glucose clamp studies, each performed on a separate day. Insulin infusion rates of 15, 40, 120, and 240 mU/M2/min were utilized to construct a dose response curve for insulin action. With this approach an attempt was made to achieve steady state insulin concentrations of 40 to 800 μU/ml (Table 1). Each subject was also studied with four different proinsulin infusions. […] Hepatic glucose output was quantitated in the basal state and during each clamp study using a primed continuous infusion of [3-3H]glucose. […] The dose response relationship for insulin and proinsulin mediated suppression of hepatic glucose output was determined by calculating the percent suppression of basal hepatic glucose output at each steady state hormone concentration obtained during the euglycemic clamp studies.

hepatic glucose output = assay: Euglycemic glucose-clamp: suppression of hepatic glucose output; type: in vivo, human
Description: as §1, with “The amount of insulin or proinsulin given during this initial 10 minute period is roughly twice that given during each subsequent 10 minute interval by a continuous hormone infusion The serum glucose is maintained between 80 and 90 mg/dl throughout the study period with a coefficient of variation of less than 5% by means of a variable rate of infusion of 20% dextrose.” left out
Each subject underwent a total of 8 euglycemic glucose clamp studies, each performed on a separate day. […] Hepatic glucose output was quantitated in the basal state and during each clamp study using a primed continuous infusion of [3-3H]glucose. […] The dose response relationship for insulin and proinsulin mediated suppression of hepatic glucose output was determined by calculating the percent suppression of basal hepatic glucose output at each steady state hormone concentration obtained during the euglycemic clamp studies.

glucose disposal = assay: Euglycemic glucose-clamp: glucose disposal rate; type: in vivo, human
Description: On one day, each subject received a 5.0 μg/M^2 /min (120 mU/M^2 /min) insulin infusion over a 6 hour period. […] Each proinsulin infusion was carried out for 300 minutes, with the quantitation of its biological effects based on measurements made during the 5th hour of each study. […]

[2] = after stopping 5 hour infusion
Source text: (§2) At this point, the hormone infusion was abruptly stopped, and the glucose concentration was maintained constant until the biologic effects of the infused hormone were no longer detectable.

[3] = test system: peripheral glucose uptake; assay: Kinetics of activation and deactivation of effect on peripheral glucose uptake; type: in vivo, human
Source text: Marked differences between the two hormones were noted when biologic activity was studied.
as §2

[4] = test system: hepatic glucose output (HGO); assay: Kinetics of deactivation of effect on hepatic glucose output (HGO); type: in vivo, human
Source text: as §2

[5] = test system: hepatic glucose production; assay: Subcutaneous administration to Type II diabetic subjects: hepatic glucose production; type: in vivo, human; conditions: 0.2 U/kg s.c.
[6] = test system: fasting Type II diabetic patients; assay: Subcutaneous administration to fasting Type II diabetic patients: plasma glucose; type: in vivo, human; conditions: for Plasma Glucose, Mean: mean total dose 18.7 I.U. (0.2 U/kg s.c.); for Plasma Glucose: subject four, total dose 16.3 I.U. (0.2 U/kg s.c.)
[7] = Study A (insulin 15 mU/M^2/min, proinsulin 2.75 μg/M^2/min), Mean ± SE
[8] = after stopping 5 hour infusion (human insulin 0.55, human proinsulin 2.75 μg/M2/min)

Which results are given for “human proinsulin: human proinsulin, available by organic synthesis, isolation from human pancreas or recombinant DNA methodology”?
Steady State Hormone Levels (Mean ± SEM) ([1]; infusion A: insulin 0.63, proinsulin 2.75 μg/M^2/min): 2.55 ± 0.16 pmol/mL; Steady State Hormone Levels (Mean ± SEM) ([1]; infusion B: insulin 1.67, proinsulin 7.5 μg/M^2/min): 6.24 ± 0.49 pmol/mL; Steady State Hormone Levels (Mean ± SEM) ([1]; infusion C: insulin 5.0, proinsulin 22.5 μg/M^2/min): 21.2 ± 1.4 pmol/mL; Steady State Hormone Levels (Mean ± SEM) ([1]; infusion D: insulin 10.0, proinsulin 45.0 μg/M^2/min): 40.0 ± 1.9 pmol/mL; Suppression of Hepatic Glucose Output (%) (hepatic glucose output; [7]): 80 ± 6%; Serum hormone concentration required to achieve 90% suppression of hepatic glucose output (hepatic glucose output; healthy subjects, steady state, euglycemic clamp): 3.35 pmol/mL; Time to reach steady state rates of glucose disposal (glucose disposal; 5 subjects, insulin 5.0 μg/M^2/min over 6 h, proinsulin 22.5 μg/M^2/min over 8 h): ≤ 5 h; Glucose Disposal Rate (glucose disposal; [7]): 122 ± 11 mg/M^2/min; Time by which hormone concentrations are below biologically effective values [2]: ≤ 90 minutes; Decay of biologic effect to stimulate glucose disposal, more slowly than human insulin ([3]; after stopping 5 hour infusion): 2.2 times; t 1/2 of deactivation of effects on glucose disposal [3, 8]: 1.45 ± 0.233 h; Time needed to reach steady state biologic effects compared to human insulin ([3]; both stimulation of glucose disposal and inhibition of HGO): much slower; Time to steady state effect to stimulate glucose disposal ([3]; continuous infusion): 5 h; Time until glucose disposal rates returned to basal ([3]; following cessation of 2.75 μg/M2/min infusion): 160 min; Time until a decline in effect to suppress HGO could be detected ([4]; after infusion stopped): 120 min; Time until HGO returned to baseline values, extrapolation of the curve ([4]; after stopping 5 hour infusion): > 6 h; t 1/2 of deactivation of effect to inhibit HGO [4, 8]: 3.83 ± 0.317 h; Effect on elevated hepatic glucose production [5]: suppressed into the normal range; Time of maximum suppression of hepatic glucose production [5]: 264 ± 31 min; Minimum hepatic glucose production ([5]; basal 3.83±0.6): 1.21 ± 0.2 mg/kg/min; Blood glucose level of each subject ([6]; 0.2 U/kg s.c., normal range about 80-110 mg/dl): lowered to a normal range; Hypoglycemia among subjects ([6]; five Type II subjects, 0.2 U/kg s.c., insulin: by approximately 300 minutes): hypoglycemia nowhere evidenced; Plasma Glucose, Mean ([6]; mean of subjects with values, 360 min after injection): 102 mg/dL; Plasma Glucose, Mean ([6]; mean of subjects with values, 400 min after injection): 95 mg/dL; Plasma Glucose, Mean ([6]; mean of subjects with values, 440 min after injection): 92 mg/dL; Plasma Glucose, Mean ([6]; mean of subjects with values, 480 min after injection): 96 mg/dL; Plasma Glucose, Mean ([6]; mean of subjects, 0 min after injection): 245 mg/dL; Plasma Glucose, Mean ([6]; mean of subjects, 40 min after injection): 235 mg/dL; Plasma Glucose, Mean ([6]; mean of subjects, 80 min after injection): 221 mg/dL; Plasma Glucose, Mean ([6]; mean of subjects, 120 min after injection): 205 mg/dL; Plasma Glucose, Mean ([6]; mean of subjects, 160 min after injection): 188 mg/dL; Plasma Glucose, Mean ([6]; mean of subjects, 280 min after injection): 129 mg/dL; Plasma Glucose, Mean ([6]; mean of subjects, 300 min after injection): 113 mg/dL; Plasma Glucose ([6]; 0 min after injection): 290 mg/dL; Plasma Glucose ([6]; 40 min after injection): 282 mg/dL; Plasma Glucose ([6]; 80 min after injection): 272 mg/dL; Plasma Glucose ([6]; 120 min after injection): 250 mg/dL; Plasma Glucose ([6]; 160 min after injection): 230 mg/dL; Plasma Glucose ([6]; 200 min after injection): 200 mg/dL; Plasma Glucose ([6]; 240 min after injection): 183 mg/dL; Plasma Glucose ([6]; 280 min after injection): 152 mg/dL; Plasma Glucose ([6]; 300 min after injection): 127 mg/dL; Plasma Glucose ([6]; 360 min after injection): 101 mg/dL; Plasma Glucose ([6]; 400 min after injection): 82 mg/dL; Plasma Glucose ([6]; 440 min after injection): 77 mg/dL
